Reference: patent publication US20140228440A1, “1-AMINO-ALKYLCYCLOHEXANE DERIVATIVES FOR THE TREATMENT OF INFLAMMATORY SKIN DISEASES” (MERZ PHARMA GmbH & CO. KGaA, priority 2008, published 2014)
Values belong to the compound of their own block, whether it stands above or below them.

Columns and labels:
[1] = system: Propionibacterium acnes ATCC 11828; assay: MIC and MBC by the agar dilution method; type: cell-based; conditions: pH 5.5
Experimental: (§1) To assess the anti-microbial potency of Neramexane against acne relevant bacterias the minimal inhibitory concentration (MIC) and minimal bactericidal concentration (MBC) against the following bacterias is established: The MICs of the samples are determined using the agar dilution method based on DIN 58940. Petri dishes of 5.5 cm diameter are poured with 2.5 ml of freshly prepared Mueller-Hinton agar (Merck company, Cat-No 1.05437) or Wilkins-Chalgren-Agar (Oxoid company, Cat-No CM643), maintained in liquid form at 50° C., to which the sample dilutions at various concentrations have been added at 50.0 vol.-%. To prepare the starting sample dilutions, a 12.5%, 3.12% suspension of the respective sample solution is prepared with Aqua purificata. From these stock-solutions, further dilutions are prepared with Aqua purificata. All test compounds are adjusted to pH 5.5. For test product no. 1, separate dilutions adjusted to pH 6.0 and pH 7.4 are also prepared. For inoculation, 1 μl of the respective germ suspension is placed on the centre of each agar plate. After drying, inoculated plates are incubated at 36.0±2.0° C. The basis for the length of incubation period is the respective growth control cultivated in parallel. The test microbe suspension is prepared by inoculating a few individual colonies of the respective bacteria into sterile saline solution until a turbidity corresponding to the McFarland standard 1.0 (approximately 10^8 cfu/ml) is reached. After that, the test microbe suspensions are further diluted 1:10 with saline solution and the microbial counts (see Table 21) are determined by the surface spread method using a spiral plater. The agar plates are incubated under the conditions given in Table 22 and subsequently evaluated. The MIC-values as given represent the lowest concentration of the active substance at which there is no macroscopically visible growth. Minimal, barely visible growth or few small individual colonies are evaluated as inhibition. [table] All negative tests of the determination of the minimal bactericial concentration are the basis of verification of remaining germs, the inoculated agar segments are cut and put in Mueller-Hinton-Bouillon (germ 1) or Wilkins-Chalgren-Bouillon (germs 2-4). After an adequate incubation period at 36.0±2.0° C. (as judged from a control without test compound), the tests are checked manually on microbial growth (=turbidity) and the minimal bactericidal concentration is determined. MBC indicates the concentration without marked turbidity. Grown germs are checked for identity to rule out unspecific contaminations. The following results are summarized and tabulated: • a) Results of the Minimal Inhibitory Concentration (MIC)* • b) Results of the Minimal Bactericidal Concentration (MBC) *The MIC is the concentration without macroscopical growth. Scarcely apparent, minimum growth or few single colonies are not considered. The controls must have a respectively good developed growth. There must be no growth on the agar plates for the sterile control. The growth of bacteria is indicated for the duplicate plates by a +(i.e., growth) or a −(i.e., no growth), +− indicates weak growth on both plates or growth on one plate and no growth on the other plate. All bacteria show appropriate growth on the respective control plate not containing any test compound. No influence of the used diluent (Aqua purifacata) was observed. No contamination is observed on the control-plates.

[2] = system: Propionibacterium avidum ATCC 25577; assay: MIC and MBC by the agar dilution method; type: cell-based; conditions: pH 5.5
Experimental: as §1

[3] = system: Propionibacterium granulosum ATCC 11829; assay: MIC and MBC by the agar dilution method; type: cell-based; conditions: pH 5.5
Experimental: as §1

[4] = system: Staphylococcus epidermidis ATCC 12228; assay: MIC and MBC by the agar dilution method; type: cell-based; conditions: pH 5.5
Experimental: as §1

[5] = system: ear swelling response induced by croton oil; assay: Irritant dermatitis mouse model (croton oil); type: in vivo, C57BL/6N male mice; conditions: i.p. 5 mg/kg 1 hr before, 3.2 mg/kg 1 hr and 3 hr after irritation; 7 hours and 24 hours
Experimental: In order to further test for antiinflammatory properties, an irritant dermatitis mouse model is used. Induction of an ear swelling response by croton oil is a toxic reaction. This response is a concentration-dependent phenomenon, independent of sensitized lymphocytes.
20 μl of 1% croton oil in acetone is applied on the left ear. Ear swelling is measured after 7 hours and 24 hours. Ear swelling is quantified with a springloaded micrometer. […] An additional group is treated with neramexane (as described above) and croton oil.
Sensitization results are analyzed using student test (comparison between treatment and positive control).

Propionibacterium acnes = assay: Log reduction assay; type: cell-based; conditions: log reduction experiment
Experimental: In order to determine the efficacy of Neramexane against a specific microorganism population (i.e., Propionibacterium acnes), a log reduction assay is performed. The organisms are prepared by inoculating the fluid thioglycolate (FTM). The microorganism is then incubated at 35.2±2.5° C. for 24 hours. The microbial suspension is adjusted to approximately 107 to 108 colony forming units (CFU) per mL and labeled as the stock suspension. […] Then […] is transferred into 11 mL of DI water to prepare a 3.125% solution. This solution is then inoculated with the microorganism and tested at time intervals of 30 seconds, 1 minute, and 5 minutes. One milliliter from each dilution is spread plated in duplicate onto tryptic soy agar with 5% sheep blood. The plates are incubated anaerobically at 35.2±2.5° C. for a minimum of 48 hours. The same procedure is repeated for the Phosphate Buffer Saline control. After the incubation period, all plates are counted to determine the number of microorganisms remaining at each time point. The concentration of each microorganism for the control and product is calculated for each interval. The log reduction is calculated to determine the change (reduction or increase) of the microorganism population relative to a starting inoculum. The minimum required bactericidal concentration is defined as a 3 log reduction from the initial inoculum.

[6] = system: Staphylococcus aureus ATCC 6538; assay: MIC by the agar dilution method; type: cell-based; conditions: pH 5.5
Experimental: (§2) To assess the anti-microbial potency of Neramexane against bacteria strains which are relevant for atopic dermatitis and localized skin infections (“impetigo”), the minimal inhibitory concentration (MIC) against the following bacteria is established:
(§3) The MICs of the samples are determined using the agar dilution method based on DIN 58940. Petri dishes of 5.5 cm diameter are poured with 2.5 ml of freshly prepared Mueller-Hinton agar 2-fold concentrated (Merck company, Cat-No 1.05437), pH 5.5, maintained in liquid form at 50° C., to which the sample dilutions at various concentrations has been added at 50.0 vol.-%.
(§4) Neramexane-Mesylate is tested in the concentration range of 6.25-1*10^−2%. All test solutions are adjusted to pH 5.5.
(§5) For inoculation, 1 μl of the respective germ suspension is placed on the centre of each agar plate. After drying, inoculated plates are incubated at 36.0±2.0° C. The basis for the length of incubation period is the respective growth control cultivated in parallel.
(§6) The test microbe suspension is prepared by inoculating a few individual colonies of the respective bacteria into sterile saline solution until a turbidity corresponding to the McFarland standard 1.0 (approximately 10^8 cfu/ml) is reached. After that, the test microbe suspensions are further diluted 1:10 with saline solution and the microbial counts (see Table 33) are determined by the surface spread method using a spiral plater.
(§7) The agar plates are incubated under the conditions given in Table 34 and subsequently evaluated. The MIC-values as given represent the lowest concentration of the active substance at which there is no macroscopically visible growth. Minimal, barely visible growth or few small individual colonies are evaluated as inhibition.
(§8) The growth of bacteria is indicated for the duplicate plates by a +(i.e., growth) or a −(i.e., no growth), +− indicates weak growth on both plates or growth on one plate and no growth on the other plate. Both bacteria-strains show appropriate growth on the respective control plate not containing any test compound. No influence of the used diluent (Aqua purifacata) is observed. No contamination is observed on the control-plates. In general it has to be considered that values determined by the used method can vary by a factor of 2 (for 1:2 dilutions).

[7] = system: Streptococcus pyogenes ATCC 12344; assay: MIC by the agar dilution method; type: cell-based; conditions: pH 5.5, compared with Staphylococcus aureus
Experimental: as §2, §3, §4, §5, §6, §7, §8

[8] = system: DNFB-induced contact hypersensitivity (ear swelling response); assay: Contact hypersensitivity (CHS) mouse model; conditions: i.p. 5 mg/kg 1 hr before
[9] = final concentration 0.002 % (Neramexane-HCl)
[10] = final concentration 0.005 % (Neramexane-HCl)
[11] = final concentration 0.01 % (Neramexane-HCl)
[12] = final concentration 0.02 % (Neramexane-HCl)
[13] = final concentration 0.04 % (Neramexane-HCl)
[14] = final concentration 0.08 % (Neramexane-HCl)
[15] = final concentration 0.16 % (Neramexane-HCl)
[16] = final concentration 0.31 % (Neramexane-HCl)
[17] = final concentration 0.63 % (Neramexane-HCl)
[18] = final concentration 1.56 % (Neramexane-HCl)

- growth of bacteria on duplicate plates (MIC determination) [1, 9]: + +
- growth of bacteria on duplicate plates (MIC determination) [1, 10]: + +
- growth of bacteria on duplicate plates (MIC determination) [1, 11]: + +
- growth of bacteria on duplicate plates (MIC determination) [1, 12]: + +
- growth of bacteria on duplicate plates (MIC determination) [1, 13]: + +
- growth of bacteria on duplicate plates (MIC determination) [1, 14]: + +
- growth of bacteria on duplicate plates (MIC determination) [1, 15]: − −
- growth of bacteria on duplicate plates (MIC determination) [1, 16]: − −
- growth of bacteria on duplicate plates (MIC determination) [1, 17]: − −
- growth of bacteria on duplicate plates (MIC determination) [1, 18]: − −
- MIC [1]: 0.16%
- growth of bacteria on duplicate plates (MIC determination) [2, 9]: + +
- growth of bacteria on duplicate plates (MIC determination) [2, 10]: + +
- growth of bacteria on duplicate plates (MIC determination) [2, 11]: + +
- growth of bacteria on duplicate plates (MIC determination) [2, 12]: + +
- growth of bacteria on duplicate plates (MIC determination) [2, 13]: + +
- growth of bacteria on duplicate plates (MIC determination) [2, 14]: + −
- growth of bacteria on duplicate plates (MIC determination) [2, 15]: − −
- growth of bacteria on duplicate plates (MIC determination) [2, 16]: − −
- growth of bacteria on duplicate plates (MIC determination) [2, 17]: − −
- growth of bacteria on duplicate plates (MIC determination) [2, 18]: − −
- MIC [2]: 0.16%
- growth of bacteria on duplicate plates (MIC determination) [3, 9]: + +
- growth of bacteria on duplicate plates (MIC determination) [3, 10]: + +
- growth of bacteria on duplicate plates (MIC determination) [3, 11]: + +
- growth of bacteria on duplicate plates (MIC determination) [3, 12]: + +
- growth of bacteria on duplicate plates (MIC determination) [3, 13]: + +
- growth of bacteria on duplicate plates (MIC determination) [3, 14]: − −
- growth of bacteria on duplicate plates (MIC determination) [3, 15]: − −
- growth of bacteria on duplicate plates (MIC determination) [3, 16]: − −
- growth of bacteria on duplicate plates (MIC determination) [3, 17]: − −
- growth of bacteria on duplicate plates (MIC determination) [3, 18]: − −
- MIC [3]: 0.08%
- growth of bacteria on duplicate plates (MIC determination) [4, 9]: + +
- growth of bacteria on duplicate plates (MIC determination) [4, 10]: + +
- growth of bacteria on duplicate plates (MIC determination) [4, 11]: + +
- growth of bacteria on duplicate plates (MIC determination) [4, 12]: + +
- growth of bacteria on duplicate plates (MIC determination) [4, 13]: + +
- growth of bacteria on duplicate plates (MIC determination) [4, 14]: + +
- growth of bacteria on duplicate plates (MIC determination) [4, 15]: + +
- growth of bacteria on duplicate plates (MIC determination) [4, 16]: + +
- growth of bacteria on duplicate plates (MIC determination) [4, 17]: − −
- growth of bacteria on duplicate plates (MIC determination) [4, 18]: − −
- MIC [4]: 0.63%
SMILES: CC1(C)CC(C)(C)CC(C)(N)C1.Cl [Neramexane-HCl]
- growth of bacteria (MBC determination) [1, 15]: + +
- growth of bacteria (MBC determination) [1, 16]: + +
- growth of bacteria (MBC determination) [1, 17]: + +
- growth of bacteria (MBC determination) [1, 18]: − −
- MBC [1]: 1.56%
- growth of bacteria (MBC determination) [2, 15]: + +
- growth of bacteria (MBC determination) [2, 16]: + +
- growth of bacteria (MBC determination) [2, 17]: + +
- growth of bacteria (MBC determination) [2, 18]: − −
- MBC [2]: 1.56%
- growth of bacteria (MBC determination) [3, 14]: + +
- growth of bacteria (MBC determination) [3, 15]: + +
- growth of bacteria (MBC determination) [3, 16]: + +
- growth of bacteria (MBC determination) [3, 17]: − −
- growth of bacteria (MBC determination) [3, 18]: − −
- MBC [3]: 0.63%
- growth of bacteria (MBC determination) [4, 17]: + +
- growth of bacteria (MBC determination) [4, 18]: + +
- MBC [4]: >1.56%

SMILES: CC1(C)CC(C)(C)CC(C)(N)C1 [Neramexane, 1-amino-1,3,3,5,5-pentamethylcyclohexane]
- ear swelling response induced by croton oil [5]: reduces the ear swelling response induced by croton oil to some degree
- antibacterial activity (Propionibacterium acnes): exhibits antibacterial activity against Propionibacterium acnes
- antibacterial activity [6]: exhibits antibacterial activity with respect to Staphylococcus aureus
- antibacterial activity [7]: acts even to greater extend against Streptococcus pyogenes
- ear swelling response ([8]; 3.2 mg/kg 1 hr and 3 hr after challenge, 24 hours after elicitation): significantly reduces ear swelling response
- induction of an immune response (sensitization) ([8]; 3.2 mg/kg 1 hr and 3 hr after sensitization): does not appear to have an impact on the induction of an immune response
